Results reported in patent publication US4221803A, “Substituted dibenzyl ethers and pharmaceutical compositions containing said ethers for the treatment of infections” (Recordati, S.A., priority 1979, dated 1980).
Converted amounts (≈) assume the structure as drawn. Like-named read-outs stand apart in the source and are kept apart here.

Key:
[1] = tested on: C.Albicans Grunenthal; test: Antimycotic activity, two-fold serial broth dilution; format: cell-based; details: Candida albicans, Sabouraud liquid pH 5.7, 37° C., 48 hours
Experimental: (§1) In Table II are reported the minimal inhibent concentrations (MIC) of the compounds I and of both the comparison substances. For MIC, the minimal concentration is intended, i.e., one which is able to inhibit the growth of several fungi and yeasts. The MIC values have been determined according to the usual two-fold serial broth dilution technique.
(§2) Medium: Sabouraud liquid pH 5.7 (5 ml per tube)
(§3) Inoculum: Yeasts were grown in Sabouraud liquid for 24 hours (Cryptococcus neoformans for 2 days). Cells were collected by centrifugation at 6500 rpm and again suspended in physiological solution so as to have a suspension giving on a Coleman Jr II spectrophotometer, at a wavelength of 650 nm, a 50% transparence (T). 0.1 ml of this suspension constituted the inoculum for 5 ml.
(§4) Temperature and incubation time: 37° C. for 48 hours.

[2] = tested on: C.Neoformans; test: as above; format: cell-based; details: Cryptococcus neoformans
Experimental: as §1, §2, §3, §4

[3] = tested on: C.Albicans R; test: as above; format: cell-based; details: Candida albicans, Sabouraud liquid pH 5.7, 37° C., 48 hours
Experimental: as §1, §2, §3, §4

[4] = tested on: C.Albicans 1040; test: as above; format: cell-based; details: Candida albicans, Sabouraud liquid pH 5.7, 37° C., 48 hours
Experimental: as §1, §2, §3, §4

[5] = tested on: C.Albicans 1041; test: as above; format: cell-based; details: Candida albicans, Sabouraud liquid pH 5.7, 37° C., 48 hours
Experimental: as §1, §2, §3, §4

[6] = Acute toxicity per os in the mouse; details: in vivo, po
From the text: In Table I are reported the acute toxicity values (LD50) of the compounds I and of both the comparison substances. Toxicity, given in mg/Kg, has been evaluated per os in the mouse by conventional methods.

[7] = tested on: T.Verrucosum; test: Antimycotic activity, two-fold serial broth dilution; format: cell-based; details: Trichophyton verrucosum, 168 h
Experimental: as §1, §2
(§5) For Aspergillus niger, after filtration, a 1/10 dilution in physiological solution was prepared. 0.1 ml of this dilution constituted the inoculum for 5 ml.
(§6) Temperature and incubation time: 25° C. for 7 days.

[8] = tested on: A.Niger; test: as above; format: cell-based; details: Aspergillus niger, 168 h, Sabouraud liquid pH 5.7, 25° C., 7 days, inoculum 1/10 dilution
Experimental: as §1, §2, §5, §6

[9] = tested on: T.Mentagroph. 2538; test: as above; format: cell-based; details: 168 h, Sabouraud liquid pH 5.7, 25° C., 7 days
Experimental: as §1, §2, §5, §6

[10] = tested on: M.Canis 28; test: as above; format: cell-based; details: Microsporum canis, 168 h, Sabouraud liquid pH 5.7, 25° C., 7 days
Experimental: as §1, §2, §5, §6

[11] = tested on: P.Chrysogenum; test: as above; format: cell-based; details: Penicillium chrysogenum, 168 h, Sabouraud liquid pH 5.7, 25° C., 7 days
Experimental: as §1, §2, §5, §6

[12] = tested on: T.Mentagroph. 10148; test: as above; format: cell-based; details: 168 h
Experimental: as §1, §2, §5, §6

[13] = tested on: T.Mentagroph. 5865; test: as above; format: cell-based; details: 168 h, Sabouraud liquid pH 5.7, 25° C., 7 days
Experimental: as §1, §2, §5, §6

[14] = tested on: E.Floccosum; test: as above; format: cell-based; details: Epidermophyton floccosum, 168 h, Sabouraud liquid pH 5.7, 25° C., 7 days
Experimental: as §1, §2, §5, §6

[15] = tested on: T.Rubrum 2121; test: as above; format: cell-based
Experimental: as §1, §2, §5, §6

[16] = tested on: B.subtilis; test: Antibacterial activity, two-fold serial broth dilution; format: cell-based; details: Bacillus subtilis
Experimental: (§7) The MIC values of the products under examination and of both comparison substances, referred to a certain number of gram positive bacteria and determined according to the conventional two-fold serial broth dilution technique, are reported in Table III.
(§8) Medium: Tryptic soy broth pH 7.3 (5 ml per tube)
(§9) Inoculum: The day before the test, the microorganisms to be tested were transplanted in their respective media. After 18 hours incubation at 37° C., 0.1 ml of a 1:100 diluted suspension of each strain in broth, were inoculated in 5 ml of medium containing the products under examination at a serial concentration of from 0.009 to 160 mcg/ml.
(§10) Temperature and incubation time: 37° C. for 18 hours.

[17] = tested on: S.aureus SG 511; test: as above; format: cell-based; details: Staphylococcus aureus
Experimental: as §7, §8, §9, §10

[18] = tested on: S.aureus 10B; test: as above; format: cell-based; details: Staphylococcus aureus
Experimental: as §7, §8, §9, §10

[19] = tested on: Str.hemolyt 203; test: as above; format: cell-based
Experimental: as §7, §8, §9, §10

[20] = tested on: Str.hemolyt 821; test: as above; format: cell-based; details: Tryptic soy broth pH 7.3, 37° C., 18 hours
Experimental: as §7, §8, §9, §10

[21] = tested on: Cl. novyi; test: as above; format: cell-based; details: Clostridium novyi, Tryptic soy broth pH 7.3, 37° C., 18 hours
Experimental: as §7, §8, §9, §10

[22] = 48 h, pH 5.7, read-out: Antimycotic activity (MIC)
[23] = pH 5.7, read-out: Antimycotic activity (MIC)
[24] = Trichophyton rubrum, 2121, 168 h, pH 5.7, read-out: Antimycotic activity (MIC)
[25] = 18 h, pH 7.3, read-out: Antibacterial activity (MIC)
[26] = SG511, 18 h, pH 7.3, read-out: Antibacterial activity (MIC)
[27] = 10B, 18 h, pH 7.3, read-out: Antibacterial activity (MIC)
[28] = Str.hemolyt 203, Tryptic soy broth pH 7.3, 37° C., 18 hours, read-out: Antibacterial activity (MIC)
[29] = T.Verrucosum, Sabouraud liquid pH 5.7, 25° C., 7 days, read-out: Antimycotic activity (MIC)
[30] = C.Neoformans, Sabouraud liquid pH 5.7, 37° C., 48 hours, read-out: Antimycotic activity (MIC)
[31] = T.Mentagroph. 10148, Sabouraud liquid pH 5.7, 25° C., 7 days, read-out: Antimycotic activity (MIC)
[32] = Trichophyton rubrum, 168 h, T.Rubrum 2121, Sabouraud liquid pH 5.7, 25° C., 7 days, read-out: Antimycotic activity (MIC)
[33] = B.subtilis, Tryptic soy broth pH 7.3, 37° C., 18 hours, read-out: Antibacterial activity (MIC)
[34] = SG511, S.aureus SG 511, Tryptic soy broth pH 7.3, 37° C., 18 hours, read-out: Antibacterial activity (MIC)
[35] = S.aureus 10B, Tryptic soy broth pH 7.3, 37° C., 18 hours, read-out: Antibacterial activity (MIC)

Compound	MIC [1] [µg/mL]	MIC [2, 22] [µg/mL]	MIC [3] [µg/mL]	MIC [4] [µg/mL]	MIC [5] [µg/mL]	LD50 [6] [mg/kg]	MIC [8] [µg/mL]	MIC [9] [µg/mL]	MIC [10] [µg/mL]	MIC [11] [µg/mL]	MIC [12, 23] [µg/mL]	MIC [13] [µg/mL]	MIC [14] [µg/mL]	MIC [15, 24] [µg/mL]	MIC [16, 25] [µg/mL]	MIC [17, 26] [µg/mL]	MIC [19, 28] [µg/mL]	MIC [20] [µg/mL]	MIC [21] [µg/mL]	MIC [7, 29] [µg/mL]	other results
Clc1ccccc1C(c1ccccc1)(c1ccccc1)n1ccnc1 [Clotrimazole, [(imidazol-1-yl)-2-(o-chlorophenyl)-2,2-diphenylmethane]]	10 (≈ 29 µM)	0.625 (≈ 1.81 µM)	10 (≈ 29 µM)	40 (≈ 116 µM)	40 (≈ 116 µM)	880	10 (≈ 29 µM)	0.078 (≈ 0.226 µM)	2.5 (≈ 7.25 µM)	40 (≈ 116 µM)	1.25 (≈ 3.62 µM)	0.62 (≈ 1.8 µM)	5 (≈ 14.5 µM)	1.25 (≈ 3.62 µM)	2.5 (≈ 7.25 µM)	0.312 (≈ 0.905 µM)	5 (≈ 14.5 µM)	2.5 (≈ 7.25 µM)	> 160	–	MIC [7, 23]: 1.25 µg/mL (≈ 3.62 µM); MIC [18, 27]: 1.25 µg/mL (≈ 3.62 µM)
Clc1ccc(COC(Cn2ccnc2)c2ccc(Cl)cc2Cl)c(Cl)c1 (stereo not drawn) [Miconazole, 2,2',4,4'-tetrachloro-α-(N-imidazolyl-methyl)-dibenzyl ether]	5 (≈ 12 µM)	0.078 (≈ 0.187 µM)	5 (≈ 12 µM)	20 (≈ 48.1 µM)	20 (≈ 48.1 µM)	870	40 (≈ 96.1 µM)	0.078 (≈ 0.187 µM)	5 (≈ 12 µM)	20 (≈ 48.1 µM)	0.625 (≈ 1.5 µM)	0.31 (≈ 0.745 µM)	5 (≈ 12 µM)	0.312 (≈ 0.75 µM)	0.625 (≈ 1.5 µM)	0.312 (≈ 0.75 µM)	–	1.25 (≈ 3 µM)	< 1.25	2.5 (≈ 6.01 µM)	MIC [18, 27]: 0.312 µg/mL (≈ 0.75 µM); MIC [19, 25]: 0.625 µg/mL (≈ 1.5 µM)
Clc1ccc(C(Cn2ccnc2)OCc2ccc(Sc3ccccc3)cc2)c(Cl)c1 (stereo not drawn) [R=C6 H5 S, 2,4-Dichloro-4'-phenylthio-α-(N-imidazolyl-methyl)-dibenzyl ether]	40 (≈ 87.8 µM)	–	40 (≈ 87.8 µM)	80 (≈ 176 µM)	80 (≈ 176 µM)	3000	10 (≈ 22 µM)	0.156 (≈ 0.343 µM)	2.5 (≈ 5.49 µM)	5 (≈ 11 µM)	–	1.25 (≈ 2.74 µM)	5 (≈ 11 µM)	–	–	–	0.078 (≈ 0.171 µM)	0.156 (≈ 0.343 µM)	5 (≈ 11 µM)	1.25 (≈ 2.74 µM)	MIC [2, 30]: 0.156 µg/mL (≈ 0.343 µM); MIC [12, 31]: 0.625 µg/mL (≈ 1.37 µM); MIC [15, 32]: 0.625 µg/mL (≈ 1.37 µM); MIC [16, 33]: 0.078 µg/mL (≈ 0.171 µM); MIC [17, 34]: 0.039 µg/mL (≈ 0.0856 µM); MIC [18, 35]: 0.018 µg/mL (≈ 0.0395 µM)
Clc1ccc(C(Cn2ccnc2)OCc2ccc(-c3ccccc3)cc2)c(Cl)c1 (stereo not drawn) [R=C6 H5, 2,4-Dichloro-4'-phenyl-α-(N-imidazolyl-methyl)-dibenzyl ether]	5 (≈ 11.8 µM)	–	5 (≈ 11.8 µM)	10 (≈ 23.6 µM)	20 (≈ 47.2 µM)	2400	20 (≈ 47.2 µM)	0.156 (≈ 0.368 µM)	20 (≈ 47.2 µM)	20 (≈ 47.2 µM)	–	1.25 (≈ 2.95 µM)	10 (≈ 23.6 µM)	–	–	–	0.312 (≈ 0.737 µM)	0.156 (≈ 0.368 µM)	< 1.25	10 (≈ 23.6 µM)	MIC [2, 30]: 0.312 µg/mL (≈ 0.737 µM); MIC [12, 31]: 0.625 µg/mL (≈ 1.48 µM); MIC [15, 32]: 0.625 µg/mL (≈ 1.48 µM); MIC [16, 33]: 0.156 µg/mL (≈ 0.368 µM); MIC [17, 34]: 0.039 µg/mL (≈ 0.0921 µM); MIC [18, 35]: 0.039 µg/mL (≈ 0.0921 µM)
